Source: patent US20180303853A1, “COMPOSITIONS AND METHODS FOR TREATING BACTERIAL INFECTIONS USING CEFTAROLINE” (priority 2017, published 2018)

Key:
[1] = Excretion after single IV dose of radiolabeled ceftaroline fosamil in healthy male adults; assay type: in vivo, human; conditions: single 600 mg IV dose of radiolabeled ceftaroline fosamil
Description: Following administration of a single 600 mg IV dose of radiolabeled ceftaroline fosamil to healthy male adults, approximately 87% of radioactivity was recovered in urine and 6% in feces. The majority of the radioactivity (˜90%) was recovered within 48 hours. Of the radioactivity recovered in urine, approximately 64% was excreted as ceftaroline and approximately 2% as ceftaroline-M-1.

[2] = system: CYP1A1, CYP1A2, CYP2A6, CYP2B6, CYP2C8, CYP2C9, CYP2C19, CYP2D6, CYP2E1 and CYP3A4; test: Cytochrome P450 inhibition in human liver microsomes; assay type: in vitro ADME; conditions: human liver microsomes
[3] = system: CYP1A2, CYP2B6, CYP2C8, CYP2C9, CYP2CI9, or CYP3A4/5; test: CYP induction in human hepatocytes; assay type: in vitro ADME; conditions: human hepatocytes
[4] = system: complicated skin and skin structure infections (cSSSI); test: Two Phase 3 studies in cSSSI, clinical cure at TOC; assay type: in vivo, human; conditions: for Treatment Difference (2-sided 95% CI): vs Vancomycin/Aztreonam
Description: (§1) A total of 1396 adults with clinically documented complicated skin and skin structure infections (cSSSI) were enrolled in two randomized, multi-center, multinational, double-blind, studies comparing 600 mg ceftaroline fosamil administered intravenously over 1 hour every 12 hours to vancomycin plus aztreonam [1 g vancomycin administered intravenously over 1 hour followed by 1 g aztreonam administered intravenously over 1 hour every 12 hours]. Patients with cSSSI (deep/extensive cellulitis, a major abscess, a wound infection [surgical or traumatic], infected insect bites, burns or ulcers, lower extremity infection in patients with diabetes mellitus or peripheral vascular disease), were enrolled in the studies. Treatment duration was […] days. A switch to oral therapy was not allowed. The Modified Intent-to-Treat (MITT) population included all patients who received any amount of study drug according to their randomized treatment group.
(§2) The primary efficacy endpoint was clinical response at the Test of Cure (TOC) visit in the co-primary CE and MITT populations (Table 2). […] In a subgroup analysis (CE population), the comparative clinical cure rates between the ceftaroline group and the vancomycin plus aztreonam group were not affected by age, gender, race, ethnicity, or weight.

[5] = system: Escherichia coli; test: Phase 3 cSSSI studies, clinical cure by infecting pathogen; assay type: in vivo; conditions: ME patients
Description: as §1, §2

[6] = system: Klebsiella oxytoca; test: as above; assay type: in vivo; conditions: ME patients
Description: as §1, §2

[7] = system: Klebsiella pneumoniae; test: as above; assay type: in vivo; conditions: ME patients
Description: as §1, §2

[8] = system: Morganella morganii; test: as above; assay type: in vivo; conditions: ME patients
Description: as §1, §2

[9] = system: Staphylococcus aureus; test: as above; assay type: in vivo; conditions: ME patients
Description: as §1, §2

[10] = system: Streptococcus agalactiae; test: as above; assay type: in vivo; conditions: ME patients
Description: as §1, §2

[11] = system: Streptococcus dysgalactiae; test: as above; assay type: in vivo; conditions: ME patients
Description: as §1, §2

[12] = system: Streptococcus pyogenes; test: as above; assay type: in vivo; conditions: ME patients
Description: as §1, §2

[13] = system: MSSA (methicillin-susceptible); test: as above; assay type: in vivo, Staphylococcus aureus; conditions: ME patients
Description: as §1, §2

[14] = system: MRSA (methicillin-resistant); assay type: in vivo, Staphylococcus aureus; conditions: cSSSI, ME patients
Description: as §1, §2

[15] = system: Streptococcus anginosus group; test: Phase 3 cSSSI studies, clinical cure by infecting pathogen; assay type: in vivo, S. anginosus, S. intermedius, and S. constellatus; conditions: ME patients
Description: as §1, §2

[16] = system: Community-Acquired Bacterial Pneumonia (CABP); test: Two Phase 3 studies in CABP, clinical cure at TOC (single and integrated/combined); assay type: in vivo, human; conditions: for Treatment Difference (2-sided 95% CI): vs Ceftriaxone
Description: (§3) In both treatment groups of CABP Study 1, two doses of oral clarithromycin (500 mg q12 h), were administered as adjunctive therapy starting on Study Day 1. No adjunctive macrolide therapy was used in CABP Study 2. Patients with new or progressive pulmonary infiltrate(s) on chest radiography and clinical signs and symptoms consistent with CABP with the need for hospitalization and IV therapy were enrolled in the studies. Treatment duration was 5 to 7 days. A switch to oral therapy was not allowed. The Modified Intent-to-Treat Efficacy (MITTE) population, included all patients who received any amount of study drug according to their randomized, treatment group and were in PORT (Pneumonia Outcomes Research Team) Risk Class III or IV.
(§4) The primary efficacy endpoint was the clinical response at the Test of Cure (TOC) visit in the co-primary Ce and MITTE populations (Table 4).

[17] = system: Escherichia coli; test: Integrated Phase 3 CABP studies, clinical cure by infecting pathogen; assay type: in vivo; conditions: ME patients
Description: as §3, §4

[18] = system: Haemophilus influenzae; test: as above; assay type: in vivo; conditions: ME patients
Description: as §3, §4

[19] = system: Klebsiella pneumoniae; test: as above; assay type: in vivo; conditions: ME patients
Description: as §3, §4

[20] = system: Staphylococcus aureus; test: as above; assay type: in vivo; conditions: ME patients
Description: as §3, §4

[21] = system: Streptococcus pneumoniae; test: as above; assay type: in vivo; conditions: ME patients
Description: as §3, §4

[22] = system: MDRSP (multidrug-resistant); assay type: in vivo, Streptococcus pneumoniae; conditions: CABP, ME patients
Description: as §3, §4

[23] = system: MSSA (methicillin-susceptible); test: Integrated Phase 3 CABP studies, clinical cure by infecting pathogen; assay type: in vivo, Staphylococcus aureus; conditions: ME patients
Description: as §3, §4

[24] = Four pooled controlled comparative Phase 3 clinical studies (two cSSSI, two CABP), safety; conditions: pooled Phase 3 studies
Description: Ceftaroline fosamil was evaluated in four controlled comparative Phase 3 clinical studies (two in cSSSI and two in CABP).

[25] = system: complicated skin and skin structure infections (cSSSI); test: Two Phase 3 studies in cSSSI, clinical cure at TOC; assay type: in vivo, human; conditions: Integrated Studies, CE population, 5 to 14 days of therapy
[26] = Aqueous solubility of ceftaroline fosamil
[27] = Pharmacokinetics of ceftaroline after IV infusion of ceftaroline fosamil in adults with normal renal function

CCO/N=C(\C(=O)N[C@@H]1C(=O)N2C(C(=O)[O-])=C(Sc3nc(-c4cc[n+](C)cc4)cs3)CS[C@H]12)c1nsc(NP(=O)(O)O)n1 [Ceftaroline fosamil, (6R,7R)-7-{(2Z)-2-(ethoxyimino)-2-[5-(phosphonoamino)-1,2,4-thiadiazol-3-yl]acetamido}-3-{[4-(1-methylpyridin-1-ium-4-yl)-1,3-thiazol-2-yl]sulfanyl}-8-oxo-5-thia-1-azabicyclo[4.2.0]oct-2-ene-2-carboxylate]
radioactivity recovered in feces [1]: ~6%
radioactivity recovered in urine [1]: approximately 87%
radioactivity recovered within 48 hours [1]: ~90%
inhibition of major cytochrome P450 isoenzymes [2]: neither ceftaroline fosamil nor ceftaroline inhibits
induction of CYP isoenzymes [3]: not inducers
Clinical cure rate at TOC ([4]; Integrated Studies, MITT population): 595/693 (85.9) %
Clinical cure rate at TOC ([4]; cSSSI Study 1, CE population): 288/316 (91.1) %
Clinical cure rate at TOC ([4]; cSSSI Study 1, MITT population): 304/351 (86.6) %
Clinical cure rate at TOC ([4]; cSSSI Study 2, CE population): 271/294 (92.2) %
Clinical cure rate at TOC ([4]; cSSSI Study 2, MITT population): 291/342 (85.1) %
Treatment Difference (2-sided 95% CI) ([4]; Integrated Studies, CE): −1.1 (−4.2, 2.0)
Treatment Difference (2-sided 95% CI) ([4]; Integrated Studies, MITT): 0.3 (−3.4, 4.0)
Treatment Difference (2-sided 95% CI) ([4]; cSSSI Study 1, CE): −2.2 (−6.6, 2.1)
Treatment Difference (2-sided 95% CI) ([4]; cSSSI Study 1, MITT): 1.0 (−4.2, 6.2)
Clinical cure rate by infecting pathogen [5]: 20/21 (95.2%)
Clinical cure rate by infecting pathogen [6]: 10/12 (83.3%)
Clinical cure rate by infecting pathogen [7]: 17/18 (94.4%)
Clinical cure rate by infecting pathogen [8]: 11/12 (91.7%)
Clinical cure rate by infecting pathogen [9]: 352/378 (93.1%)
Clinical cure rate by infecting pathogen [10]: 21/22 (95.5%)
Clinical cure rate by infecting pathogen [11]: 13/13 (100%)
Clinical cure rate by infecting pathogen [12]: 56/56 (100%)
Clinical cure rate by infecting pathogen [13]: 212/228 (93.0%)
Clinical cure rate by infecting pathogen [14]: 142/152 (93.4%)
Clinical cure rate by infecting pathogen [15]: 12/13 (92.3%)
Clinical cure rate at TOC ([16]; CABP Study 1, CE population): 194/224 (86.6%)
Clinical cure rate at TOC ([16]; CABP Study 1, MITTE population): 244/291 (83.8%)
Clinical cure rate at TOC ([16]; CABP Study 2, CE population): 193/235 (82.1%)
Clinical cure rate at TOC ([16]; CABP Study 2, MITTE population): 235/289 (81.3%)
Clinical cure rate at TOC ([16]; Integrated Studies, CE population, 5 to 7 days of therapy): 387/459 (84.3%)
Clinical cure rate at TOC ([16]; Integrated Studies, MITTE population): 479/580 (82.6%)
Treatment Difference (2-sided 95% CI) ([16]; CABP Study 1, CE): 8.4 (1.4, 15.4)
Treatment Difference (2-sided 95% CI) ([16]; CABP Study 1, MITTE): 6.2 (−0.2, 12.6)
Treatment Difference (2-sided 95% CI) ([16]; CABP Study 2, CE): 4.9 (−2.5, 12.5)
Treatment Difference (2-sided 95% CI) ([16]; CABP Study 2, MITTE): 5.9 (−1.0, 12.7)
Treatment Difference (2-sided 95% CI) ([16]; Integrated Studies, CE): 6.7 (1.6, 11.8)
Treatment Difference (2-sided 95% CI) ([16]; Integrated Studies, MITTE): 6.0 (1.4, 10.7)
Clinical cure rate by infecting pathogen [17]: 10/12 (83.3%)
Clinical cure rate by infecting pathogen [18]: 15/18 (83.3%)
Clinical cure rate by infecting pathogen [19]: 13/13 (100%)
Clinical cure rate by infecting pathogen [20]: 18/25 (72.0%)
Clinical cure rate by infecting pathogen [21]: 54/63 (85.7%)
Clinical cure rate by infecting pathogen [22]: 4/4 (100%)
Clinical cure rate by infecting pathogen [23]: 18/25 (72.0%)
Adverse reaction: Constipation [24]: 2%
Adverse reaction: Diarrhea [24]: 5%
Adverse reaction: Headache [24]: 4%
Adverse reaction: Hypokalemia [24]: 2%
Adverse reaction: Increased transaminases [24]: 2%
Adverse reaction: Insomnia [24]: 3%
Adverse reaction: Nausea [24]: 4%
Adverse reaction: Phlebitis [24]: 2%
Adverse reaction: Pruritus [24]: 2%
Adverse reaction: Rash [24]: 3%
Adverse reaction: Vomiting [24]: 2%
Serious adverse events [24]: 8%
discontinuation due to hypersensitivity (most common adverse event leading to discontinuation) [24]: 0.3%
treatment discontinuations due to adverse events [24]: 4%
Clinical cure rate at TOC [25]: 559/610 (91.6) %
aqueous solubility [26]: 8-30 mg per ml
accumulation following multiple IV infusions ([27]; 600 mg every 8 or 12 hours for up to 14 days, normal renal function): No appreciable accumulation
conversion of prodrug in plasma ([27]; appeared to be mediated by a phosphatase enzyme): rapidly converted into bioactive ceftaroline
